This is an account of results in patent publication US10092028B2, “Compositions comprising cinnamaldehyde and zinc and methods of using such compositions” (NESTEC S.A., priority 2014, dated 2018).

Data set [1] can be described thus: comparative taste testing in human subjects. In kind it is in vivo. Particulars: 4.8 ppm capsaicin or 350 ppm cinnamaldehyde, FIG. 9. On the procedure: Human subjects were administered a composition comprising 4.8 ppm capsaicin or 350 ppm cinnamaldehyde. […] 87.9% of the participants judged capsaicin intense to very intense, compared to only 20.5% for cinnamaldehyde. To achieve a similar effect on fat oxidation of capsaicin and cinnamaldehyde, the dose of capsaicin is about 1.5 times less than the maximum that can be used as a flavor (7 ppm according to Fenaroli's Handbook; Burdock, 2010), and the dose of cinnamaldehyde is about 17.5 times less than the maximum that can be used as a flavor (6191.0 ppm according to Fenaroli's Handbook; Burdock, 2010).

The conditions of data set [2]: in vivo; cited from earlier work.
The nature of data set [3]: nose temperature after ingestion in human subjects. In kind it is in vivo. The note with it: fifteen minutes following ingestion, FIG. 7. On the procedure: The nose temperature of the subjects was analyzed over the fifteen minutes following ingestion of the various compounds. […] The increased sympathetic activity identified by measuring the facial temperature (increased blood flow on the chin) might explain the increased energy expenditure measured by indirect calorimetry.

Data set [4] is described as follows: insulin sensitivity in mice with chronic ingestion, high fat diet. In kind it is in vivo. The note with it: mice chronically fed high fat diet containing 0.2 wt % cinnamaldehyde, FIG. 11. An excerpt:
The composition can thereby reduce glycemia.

Another data set concerns the target TRPA1 (Homo sapiens, UniProt O75762). The note with it: read-out: EC50 for activation of TRPA1; cited from earlier work.
Data set [5] addresses T1, hTRPA1 expressed in CHO cells (Homo sapiens, UniProt O75762).
T1 construct: expressed in transfected cells; host or cells: CHO cells
Nature of the data set: in vitro activity of hTRPA1 expressed in CHO cells, intracellular calcium with a fluorescent dye. In kind it is cell-based. Particulars: cinnamaldehyde at 50 mM (C+), according to a dose-response curve.

The nature of data set [6]: chin temperature after ingestion in human subjects (sympathetic activity). In kind it is in vivo. On the procedure: The chin temperature of the subjects was measured over the eighty minutes following ingestion of the various compounds. […] The increased sympathetic activity identified by measuring the facial temperature (increased blood flow on the chin) might explain the increased energy expenditure measured by indirect calorimetry.

The target in the next data set is TRPV1 (Homo sapiens, UniProt Q8NER1). The note with it: cited from earlier work.
Sequence of TRPV1 (Q8NER1 whole entry, species assumed): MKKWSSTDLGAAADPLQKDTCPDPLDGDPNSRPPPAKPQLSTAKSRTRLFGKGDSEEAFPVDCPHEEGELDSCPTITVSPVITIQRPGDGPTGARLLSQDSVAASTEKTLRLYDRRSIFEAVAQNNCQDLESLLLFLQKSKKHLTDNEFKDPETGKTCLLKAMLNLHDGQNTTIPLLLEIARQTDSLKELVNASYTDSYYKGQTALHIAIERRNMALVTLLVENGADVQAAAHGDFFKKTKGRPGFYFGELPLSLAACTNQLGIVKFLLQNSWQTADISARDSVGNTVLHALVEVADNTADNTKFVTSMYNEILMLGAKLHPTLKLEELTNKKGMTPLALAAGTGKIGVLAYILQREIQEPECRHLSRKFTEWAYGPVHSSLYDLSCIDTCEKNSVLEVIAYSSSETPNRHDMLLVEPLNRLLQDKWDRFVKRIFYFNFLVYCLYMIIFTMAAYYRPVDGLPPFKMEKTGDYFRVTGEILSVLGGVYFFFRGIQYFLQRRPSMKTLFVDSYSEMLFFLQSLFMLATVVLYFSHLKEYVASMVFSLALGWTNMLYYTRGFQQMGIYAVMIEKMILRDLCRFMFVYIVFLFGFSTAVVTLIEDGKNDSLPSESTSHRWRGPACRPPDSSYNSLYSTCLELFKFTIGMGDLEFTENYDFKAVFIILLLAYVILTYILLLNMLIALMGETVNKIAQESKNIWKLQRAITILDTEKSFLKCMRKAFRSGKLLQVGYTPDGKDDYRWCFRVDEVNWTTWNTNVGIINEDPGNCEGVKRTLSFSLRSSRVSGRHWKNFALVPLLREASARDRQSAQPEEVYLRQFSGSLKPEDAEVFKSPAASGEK
Data set [7] can be described thus: postprandial fat oxidation after ingestion in human subjects. In kind it is in vivo. On the procedure: The postprandial fat oxidation was measured over the 90 minutes following ingestion of the various compounds.
A short description of data set [8]: energy expenditure after ingestion in human subjects. In kind it is in vivo. On the procedure: Human subjects were administered placebo, a cooling flavor, capsaicin, or cinnamaldehyde. The energy expenditure was measured over the eighty minutes following ingestion. […] The increased sympathetic activity identified by measuring the facial temperature (increased blood flow on the chin) might explain the increased energy expenditure measured by indirect calorimetry.

[9] abbreviates: at a flavoring level judged significantly less intense than capsaicin.

Structures are written as SMILES. pEC50: −log10 of the molar value.

T1 sequence (O75762 whole entry): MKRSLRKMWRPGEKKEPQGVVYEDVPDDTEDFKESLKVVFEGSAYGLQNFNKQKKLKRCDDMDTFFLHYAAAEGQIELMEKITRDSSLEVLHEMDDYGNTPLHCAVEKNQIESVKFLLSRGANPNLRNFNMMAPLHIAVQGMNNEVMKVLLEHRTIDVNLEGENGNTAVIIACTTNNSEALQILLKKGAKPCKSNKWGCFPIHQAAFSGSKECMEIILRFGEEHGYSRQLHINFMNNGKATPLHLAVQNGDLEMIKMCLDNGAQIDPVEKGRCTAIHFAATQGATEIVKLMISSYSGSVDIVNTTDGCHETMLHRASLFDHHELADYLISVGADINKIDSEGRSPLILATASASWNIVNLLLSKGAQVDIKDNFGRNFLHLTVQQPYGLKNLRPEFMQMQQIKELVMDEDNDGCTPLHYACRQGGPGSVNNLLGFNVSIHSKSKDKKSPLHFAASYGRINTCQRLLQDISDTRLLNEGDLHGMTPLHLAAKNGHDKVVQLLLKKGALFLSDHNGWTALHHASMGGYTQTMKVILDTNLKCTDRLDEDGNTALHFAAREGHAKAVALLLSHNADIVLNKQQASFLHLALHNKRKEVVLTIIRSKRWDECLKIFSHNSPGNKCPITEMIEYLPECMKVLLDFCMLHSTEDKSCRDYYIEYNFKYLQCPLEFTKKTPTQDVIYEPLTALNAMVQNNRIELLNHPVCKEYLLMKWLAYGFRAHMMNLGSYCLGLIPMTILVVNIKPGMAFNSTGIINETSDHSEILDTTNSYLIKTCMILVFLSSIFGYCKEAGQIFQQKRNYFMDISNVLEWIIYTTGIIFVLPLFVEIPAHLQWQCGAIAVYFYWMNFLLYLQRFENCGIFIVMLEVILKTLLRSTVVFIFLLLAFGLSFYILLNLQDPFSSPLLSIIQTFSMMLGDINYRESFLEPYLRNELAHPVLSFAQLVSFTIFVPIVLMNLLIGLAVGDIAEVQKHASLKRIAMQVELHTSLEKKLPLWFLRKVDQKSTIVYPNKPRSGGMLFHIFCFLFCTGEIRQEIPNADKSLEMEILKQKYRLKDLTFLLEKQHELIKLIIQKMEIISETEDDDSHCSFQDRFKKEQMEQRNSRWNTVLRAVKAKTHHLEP
Sequence of TRPA1 (O75762 whole entry): as above

As for `COc1cc(CNC(=O)CCCC/C=C/C(C)C)ccc1O` [capsaicin], the “participants who judged the taste intense to very intense” value in data set [1] amounted to 87.9%. Also, the “efficient dose for increasing energy expenditure and fat oxidation” value in [2] is reported as ≥ 20 mg. In [3], the nose temperature entry is “increase nose temperatures”.
As for `O=CC=Cc1ccccc1` [cinnamaldehyde], the “insulin sensitivity relative to same high fat diet without cinnamaldehyde” value in [4] is given as “improved insulin sensitivity”. In addition, at TRPA1, the pEC50 was ~5.00. In [5], the “activity of hTRPA1, positive control efficacy” value is reported as “maximum efficacy”. Moreover, the “impact on sympathetic nervous system activity compared to capsaicin” value in data set [6] (setting [9]) is recorded as “significantly higher impact”. Moreover, in data set [6] (eighty minutes following ingestion, FIG. 8), the “chin temperature relative to baseline” value is “increases chin temperature for a prolonged time”. Besides, the “activation of TRPV1” value on TRPV1 was “but not TRPV1 or TRPM8”. The “postprandial fat oxidation compared to placebo” value in data set [7] (90 minutes following ingestion, time course and AUC, FIGS. 5 and 6) is “maintained at higher levels”. In data set [7] (setting [9]), the “effect on fat oxidation compared to capsaicin” value is recorded as “equivalent effect”. Further, in data set [8] (setting [9]), the “impact on energy expenditure compared to capsaicin” value was “significantly higher impact”. Moreover, the “energy expenditure compared to placebo” value in data set [8] (eighty minutes following ingestion, time course and AUC, FIGS. 3 and 4) is “increased”. The nose temperature entry in [3] is listed as “increase nose temperatures”.
